Experimental data as given in patent US20240182513A1, “SEPARATION OF METAL IONS FROM A SAMPLE USING GLYCOLIPIDS” (ARIZONA BOARD OF REGENTS ON BEHALF OF THE UNIVERSITY OF …, priority 2021, published 2024).

Experiments:
[1] = Example 2.1 rhamnolipid precipitation, filtration, centrifugation: lanthanum; settings: for Treatment 2: Rhamnolipid and Filtration Cf / Treatment 3: Rhamnolipid and Centrifugation Cc / Treatment 1: Rhamnolipid Only Cr: lanthanum concentration after treatment
Description: (§1) Structural variants of synthetic glycolipids were used to show the effect of the number and length of the hydrophobic tail(s) on rhamnolipid as a chemical precipitant. […] Solutions (10 mM) were made using nanopure water (≥18 MΩ-cm) then adjusted to a pH of 6.9±0.05 with HNO3 and NaOH. These solutions were made in advance and stored in the cold room for up to one month. They were brought to room temperature before each experiment.
(§2) Three metals were tested for binding with rhamnolipid. Lead as […] (Fisher Scientific, Waltham, MA, 99% purity), was chosen to represent a metal with high rhamnolipid-metal conditional stability constant; lanthanum as La(NO3)3 6(H2O) (Sigma-Aldrich, St. Louis, MO, 99.99% purity) was chosen as a representative REE; and magnesium as Mg(NO3)2 6(H2O) (Sigma-Aldrich, St. Louis, MO, 99% purity) was chosen to represent a metal with a low rhamnolipid-metal conditional stability constant (Hogan et al., 2017). Metal solutions (5 mM) were made using nanopure water (≥18 MΩ-cm) in 20 ml glass scintillation vials. All solutions were used within 15 min to ensure minimal adsorption to the glass vial.
(§3) Three glycolipid-based treatments were evaluated to remove metal from solution: (1) the addition of glycolipid with no further treatment (gravitational precipitation), (2) the addition of a glycolipid followed by filtration or (3) the addition of a glycolipid followed by centrifugation. Each metal (Pb, La, and Mg) was evaluated separately with each of the glycolipid structures. For each experiment, a metal solution was mixed with a glycolipid solution in a 1.7 ml reaction tube at varying molar ratios of glycolipid to metal: 0:1 (glycolipid-free control), 2:1, 5:1, and 10:1. The reactions were mixed in the order of nanopure water (≥18 MΩ-cm), glycolipid solution (10 mM), then metal solution (5 mM). The metal and glycolipid solutions were continuously stirred as they were aliquoted into the reaction tubes. The experiment was performed in triplicate.
(§4) The reaction tubes were mixed overnight (16 to 24 h) and then three samples were collected from each tube to measure the effect of each of the three treatments: a glycolipid only treatment sample, a filtration treatment sample, and a centrifugation treatment sample. Briefly, for the glycolipid only treatment samples all tubes were vortexed for approximately 5 sec immediately before removing 0.1 ml into a dilution tube of 2% trace metal grade nitric acid (12 to 14 ml) to minimize the settling of particles. For the filtration samples each reaction tube was vortexed for 5 sec and then a 0.6 ml aliquot was collected with a 1 ml syringe. A GHP acrodisc disk filter (hydrophilic polypropylene membrane, 0.45 μm pore size, 25 mm disc diameter) from Pall Life Sciences (Port Washington, New York) was then placed onto the end of the syringe and the solution was pushed through the filter. The void space in the disk filter holds approximately 0.5 ml, therefore around 0.1 ml of filtrate was collected into a dilution tube. For the centrifugation sample, the remaining solution was centrifuged at 10,000 RCF for 15 min. Approximately 0.1 ml of the supernatant was aliquoted into a dilution tube. Following collection, all samples were taken for metal analysis using ICP-MS.

[2] = Example 2.1 rhamnolipid precipitation, filtration, centrifugation: magnesium; settings: for Treatment 2: Rhamnolipid and Filtration Cf / Treatment 3: Rhamnolipid and Centrifugation Cc / Treatment 1: Rhamnolipid Only Cr: magnesium concentration after treatment; for Treatment 1: Rhamnolipid Only (Rr) efficiency of removal / Treatment 2: Rhamnolipid and Filtration (Rf) efficiency of removal / Treatment 3: Rhamnolipid and Centrifugation (Rc) efficiency of removal: magnesium
Description: as §1, §2, §3, §4

[3] = Example 2.1 rhamnolipid precipitation, filtration, centrifugation: lead; settings: for Treatment 2: Rhamnolipid and Filtration Cf / Treatment 3: Rhamnolipid and Centrifugation Cc / Treatment 1: Rhamnolipid Only Cr: lead concentration after treatment
Description: as §1, §2, §3, §4

SMILES: CCCC(CC(=O)O)OC1O[C@@H](C)[C@H](O)[C@@H](O)[C@H]1O (stereo partly drawn) [Rha C6]
- Treatment 2: Rhamnolipid and Filtration Cf ([1]; molar ratio 2 to 1): 0.143 ± 0.062 mmol/L
- Treatment 3: Rhamnolipid and Centrifugation Cc ([1]; molar ratio 2 to 1): 0.324 ± 0.018 mmol/L
- Treatment 1: Rhamnolipid Only Cr ([1]; molar ratio 5 to 1): 0.282 ± 0.026 mmol/L
- Treatment 2: Rhamnolipid and Filtration Cf ([1]; molar ratio 5 to 1): 0.106 ± 0.026 mmol/L
- Treatment 3: Rhamnolipid and Centrifugation Cc ([1]; molar ratio 5 to 1): 0.320 ± 0.024 mmol/L
- Treatment 1: Rhamnolipid Only Cr ([1]; molar ratio 10 to 1): 0.332 ± 0.040 mmol/L
- Treatment 2: Rhamnolipid and Filtration Cf ([1]; molar ratio 10 to 1): 0.114 ± 0.064 mmol/L
- Treatment 3: Rhamnolipid and Centrifugation Cc ([1]; molar ratio 10 to 1): 0.294 ± 0.010 mmol/L
- Treatment 1: Rhamnolipid Only Cr ([1]; molar ratio rhamnolipid:lanthanum 2 to 1): 0.325 ± 0.026 mmol/L
- Treatment 2: Rhamnolipid and Filtration (Rf) efficiency of removal ([1]; lanthanum, molar ratio 2 to 1): (51.8%)
- Treatment 1: Rhamnolipid Only (Rr) efficiency of removal ([1]; lanthanum, molar ratio 5 to 1): (5.2%)
- Treatment 2: Rhamnolipid and Filtration (Rf) efficiency of removal ([1]; lanthanum, molar ratio 5 to 1): (64.4%)
- Treatment 2: Rhamnolipid and Filtration (Rf) efficiency of removal ([1]; lanthanum, molar ratio 10 to 1): (61.6%)
- Treatment 3: Rhamnolipid and Centrifugation (Rc) efficiency of removal ([1]; lanthanum, molar ratio 10 to 1): (1.1%)
- Treatment 2: Rhamnolipid and Filtration Cf ([2]; molar ratio 2 to 1): 0.202 ± 0.016 mmol/L
- Treatment 3: Rhamnolipid and Centrifugation Cc ([2]; molar ratio 2 to 1): 0.265 ± 0.010 mmol/L
- Treatment 1: Rhamnolipid Only Cr ([2]; molar ratio 5 to 1): 0.248 ± 0.013 mmol/L
- Treatment 2: Rhamnolipid and Filtration Cf ([2]; molar ratio 5 to 1): 0.178 ± 0.020 mmol/L
- Treatment 3: Rhamnolipid and Centrifugation Cc ([2]; molar ratio 5 to 1): 0.255 ± 0.001 mmol/L
- Treatment 1: Rhamnolipid Only Cr ([2]; molar ratio 10 to 1): 0.258 ± 0.011 mmol/L
- Treatment 2: Rhamnolipid and Filtration Cf ([2]; molar ratio 10 to 1): 0.165 ± 0.001 mmol/L
- Treatment 3: Rhamnolipid and Centrifugation Cc ([2]; molar ratio 10 to 1): 0.272 ± 0.016 mmol/L
- Treatment 1: Rhamnolipid Only Cr ([2]; molar ratio rhamnolipid:magnesium 2 to 1): 0.247 ± 0.014 mmol/L
- Treatment 1: Rhamnolipid Only (Rr) efficiency of removal ([2]; molar ratio 2 to 1): (7.6%)
- Treatment 2: Rhamnolipid and Filtration (Rf) efficiency of removal ([2]; molar ratio 2 to 1): (24.5%)
- Treatment 3: Rhamnolipid and Centrifugation (Rc) efficiency of removal ([2]; molar ratio 2 to 1): (0.9%)
- Treatment 1: Rhamnolipid Only (Rr) efficiency of removal ([2]; molar ratio 5 to 1): (7.3%)
- Treatment 2: Rhamnolipid and Filtration (Rf) efficiency of removal ([2]; molar ratio 5 to 1): (33.4%)
- Treatment 3: Rhamnolipid and Centrifugation (Rc) efficiency of removal ([2]; molar ratio 5 to 1): (4.9%)
- Treatment 1: Rhamnolipid Only (Rr) efficiency of removal ([2]; molar ratio 10 to 1): (3.6%)
- Treatment 2: Rhamnolipid and Filtration (Rf) efficiency of removal ([2]; molar ratio 10 to 1): (38.2%)
- Treatment 2: Rhamnolipid and Filtration Cf ([3]; molar ratio 2 to 1): 0.115 ± 0.022 mmol/L
- Treatment 3: Rhamnolipid and Centrifugation Cc ([3]; molar ratio 2 to 1): 0.313 ± 0.003 mmol/L
- Treatment 1: Rhamnolipid Only Cr ([3]; molar ratio 5 to 1): 0.329 ± 0.014 mmol/L
- Treatment 2: Rhamnolipid and Filtration Cf ([3]; molar ratio 5 to 1): 0.046 ± 0.017 mmol/L
- Treatment 3: Rhamnolipid and Centrifugation Cc ([3]; molar ratio 5 to 1): 0.322 ± 0.004 mmol/L
- Treatment 1: Rhamnolipid Only Cr ([3]; molar ratio 10 to 1): 0.316 ± 0.008 mmol/L
- Treatment 2: Rhamnolipid and Filtration Cf ([3]; molar ratio 10 to 1): 0.119 ± 0.018 mmol/L
- Treatment 3: Rhamnolipid and Centrifugation Cc ([3]; molar ratio 10 to 1): 0.323 ± 0.005 mmol/L
- Treatment 1: Rhamnolipid Only Cr ([3]; molar ratio rhamnolipid:lead 2 to 1): 0.323 ± 0.005 mmol/L
- Treatment 2: Rhamnolipid and Filtration (Rf) efficiency of removal ([3]; lead, molar ratio 2 to 1): (64.0%)
- Treatment 3: Rhamnolipid and Centrifugation (Rc) efficiency of removal ([3]; lead, molar ratio 2 to 1): (2.2%)
- Treatment 2: Rhamnolipid and Filtration (Rf) efficiency of removal ([3]; lead, molar ratio 5 to 1): (85.8%)
- Treatment 1: Rhamnolipid Only (Rr) efficiency of removal ([3]; lead, molar ratio 10 to 1): (1.4%)
- Treatment 2: Rhamnolipid and Filtration (Rf) efficiency of removal ([3]; lead, molar ratio 10 to 1): (62.7%)
